Experimental data published in patent US10662218B2, “Analogs of celastrol” (ERX Pharmaceuticals, Inc., priority 2015, dated 2020).
≈ marks a conversion by molar mass, not a printed value. Where “and” joins values, the source holds several entries; their conditions need not be identical. Identical values can stand only once. Like-named read-outs stand apart in the source and are kept apart here.

Experiments:
[1] = Compound solubility in PBS (pH 7.4), LC-MS/MS; conditions: PBS (pH 7.4), pH 7.4, aqueous buffer, kinetic from dmso stock
Protocol: • Test concentration: 100 μM (1% of DMSO) • Test systems: PBS (pH 7.4) • Incubation condition: shaken (1000 rpm) for 1 h at room temperature • Sample size: Duplicates (n=2) • Bioanalytical method: LC-MS/MS

[2] = test system: C57BL/6 Diet Induced Obese (DIO) mice; assay: Oral (P.O.) administration study in DIO mice: in vivo activity, body weights; parameters: species or system mouse; conditions: for Body weight, Mean / change in vivo at 2 mg/kg: male; for change in vivo at 2 mg/kg: Mus musculus, po, read-out: Body weight, %-Diff; for Individual Body Weight, PRED 11: pre-dose phase day 11 (baseline); for Individual Body Weight, PRED 12: pre-dose phase day 12 (baseline); for Individual Body Weight, PRED 13: pre-dose phase day 13 (baseline); for Individual Body Weight, PRED 14: pre-dose phase day 14 (baseline); for Individual Body Weight, DSNG 1: dosing phase day 1; for Individual Body Weight, DSNG 2: dosing phase day 2; for Individual Body Weight: individual male animals
How it was run: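 Male C57BL/6 DIO mice (21-22 weeks, 29.8-40.1 g) were gavage-acclimated with vehicle, then dosed orally once daily for 10 days at 2 mL/kg. Body weight was recorded daily before dosing. Cumulative change and AUC were analysed by one-way ANOVA with Dunnett's test.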

[3] = test system: C57BL/6 Diet Induced Obese (DIO) mice; assay: Oral (P.O.) administration study in DIO mice: animal fate (mortality) and clinical observations; conditions: mouse, in vivo, 2 mg/kg
Protocol: Male C57BL/6 DIO mice were assigned to 12 groups, and doses of 2 mg/kg Celastrol (ERX1000-4), ERX1006, ERX1007, ERX1037, ERX1060, ERX1077, ERX1107, ERX1149, ERX1168, ERX1177, and Pristimerin were administered to Groups 2 through 12, respectively. Animals were dosed via oral gavage once daily for 10 days at a volume of 2 mL/kg. The vehicle control article was 1% methyl cellulose (400 cps) in citric acid and phosphate buffer.
Parameters assessed included mortality, clinical observations, body weights and food consumption and blood glucose evaluations.
All animals were anesthetized via carbon dioxide, sacrificed, and discarded without further evaluation on Day 11.

[4] = Solubility (μM) Mean, Table 6-B, test concentration 100 μM (1% of DMSO), shaken (1000 rpm) 1 h at room temperature, n = 2
[5] = DIO mice, 2 mg/kg, phase DSNG, Day 7
[6] = DIO mice, 2 mg/kg, phase DSNG, Day 8
[7] = DIO mice, 2 mg/kg, phase DSNG, Day 9
[8] = DIO mice, 2 mg/kg, phase DSNG, Day 10
[9] = DIO mice, 2 mg/kg, phase DSNG, Day 11
[10] = Day 1, DSNG phase, 2 mg/kg, N=5
[11] = Day 2, DSNG phase, 2 mg/kg, N=5
[12] = Day 3, DSNG phase, 2 mg/kg, N=5
[13] = Day 4, DSNG phase, 2 mg/kg, N=5
[14] = Day 5, DSNG phase, 2 mg/kg, N=5
[15] = Day 6, DSNG phase, 2 mg/kg, N=5
[16] = 24 h, Day 1, DSNG phase, 2 mg/kg, difference of group mean
[17] = 48 h, Day 2, DSNG phase, 2 mg/kg, difference of group mean
[18] = 72 h, Day 3, DSNG phase, 2 mg/kg, difference of group mean
[19] = 96 h, Day 4, DSNG phase, 2 mg/kg, difference of group mean
[20] = 120 h, Day 5, DSNG phase, 2 mg/kg, difference of group mean
[21] = 144 h, Day 6, DSNG phase, 2 mg/kg, difference of group mean
[22] = 168 h, DIO mice, 2 mg/kg, phase DSNG, Day 7, difference of group mean from vehicle group 1
[23] = 192 h, DIO mice, 2 mg/kg, phase DSNG, Day 8, difference of group mean from vehicle group 1
[24] = 216 h, DIO mice, 2 mg/kg, phase DSNG, Day 9, difference of group mean from vehicle group 1
[25] = 240 h, DIO mice, 2 mg/kg, phase DSNG, Day 10, difference of group mean from vehicle group 1
[26] = 264 h, DIO mice, 2 mg/kg, phase DSNG, Day 11, difference of group mean from vehicle group 1
[27] = individual male DIO mouse of the 2 mg/kg group
[28] = individual male DIO mouse, 2 mg/kg, 2 mg/kg
[29] = individual male DIO mouse, group dosed 2 mg/kg, 2 mg/kg

CC1=C(O)C(=O)C=C2C1=CC=C1[C@@]2(C)CC[C@@]2(C)[C@@H]3C[C@](C)(CN(C)C)CC[C@]3(C)CC[C@]12C [ERX1060]
solubility at 1 h [1, 4]: 1.11 µM (≈ 0.515 µg/mL)
solubility at 1 h ([1]; Solubility (μM), Table 6-D): 1.11 µM (≈ 0.515 µg/mL)
Body weight, Mean [2, 5]: 33.8 g
Body weight, Mean [2, 6]: 33.3 g
Body weight, Mean [2, 7]: 33.1 g
Body weight, Mean [2, 8]: 33.5 g
Body weight, Mean [2, 9]: 34.4 g
Body weight, Mean [2, 10]: 34.6 g
Body weight, Mean [2, 11]: 34.1 g
Body weight, Mean [2, 12]: 34.4 g
Body weight, Mean [2, 13]: 34.1 g
Body weight, Mean [2, 14]: 34.2 g
Body weight, Mean [2, 15]: 34.4 g
change in vivo at 2 mg/kg [2, 16]: 1%
change in vivo at 2 mg/kg [2, 17]: -1%
change in vivo at 2 mg/kg [2, 18]: 1%
change in vivo at 2 mg/kg [2, 19]: 2%
change in vivo at 2 mg/kg [2, 20]: 1%
change in vivo at 2 mg/kg [2, 21]: 3%
change in vivo at 2 mg/kg [2, 22]: 1%
change in vivo at 2 mg/kg [2, 23]: -1%
change in vivo at 2 mg/kg [2, 24]: 0%
change in vivo at 2 mg/kg [2, 25]: 0%
change in vivo at 2 mg/kg [2, 26]: 1%
Individual Body Weight, PRED 11 [2, 27]: 36.2 g and 38.2 g and 35.9 g and 40.9 g and 38.9 g
Individual Body Weight, PRED 12 [2, 27]: 34.5 g and 36.6 g and 34.9 g and 41.2 g and 39.0 g
Individual Body Weight, PRED 13 [2, 27]: 33.2 g and 34.7 g and 33.5 g and 39.8 g and 37.1 g
Individual Body Weight, PRED 14 [2, 27]: 33.7 g and 35.1 g and 32.7 g and 40.6 g and 37.4 g
Individual Body Weight, DSNG 1 [2, 28]: 32.9 g and 34.3 g and 31.3 g and 38.7 g and 35.6 g
Individual Body Weight, DSNG 2 [2, 28]: 33.2 g and 34.1 g and 29.8 g and 38.2 g and 35.2 g
Individual Animal Fate: Fate Status [3]: Scheduled Sacrifice

CC1=C(O)C(=O)C=C2C1=CC=C1[C@@]2(C)CC[C@@]2(C)[C@@H]3C[C@](C)(N)CC[C@]3(C)CC[C@]12C [ERX1077]
solubility at 1 h [1, 4]: 16.7 µM (≈ 7.04 µg/mL)
solubility at 1 h ([1]; Solubility (μM), Table 6-D): 16.7 µM (≈ 7.04 µg/mL)
Individual Body Weight ([2]; 2 mg/kg, Phase Day DSNG 1): 31.5 g and 32.8 g and 34.5 g and 38.3 g and 34.9 g
Individual Body Weight ([2]; 2 mg/kg, Phase Day DSNG 2): 31.2 g and 32.5 g and 34.1 g and 38.4 g and 34.4 g
Individual Body Weight ([2]; 2 mg/kg, Phase Day PRED 11 (pre-dose baseline)): 32.6 g and 34.8 g and 36.1 g and 40.2 g and 38.0 g
Individual Body Weight ([2]; 2 mg/kg, Phase Day PRED 12 (pre-dose baseline)): 33.2 g and 34.0 g and 35.8 g and 40.4 g and 37.0 g
Individual Body Weight ([2]; 2 mg/kg, Phase Day PRED 13 (pre-dose baseline)): 31.6 g and 33.1 g and 35.6 g and 39.7 g and 36.9 g
Individual Body Weight ([2]; 2 mg/kg, Phase Day PRED 14 (pre-dose baseline)): 32.7 g and 33.6 g and 35.7 g and 40.6 g and 36.6 g
Body weight, Mean [2, 5]: 33.3 g
Body weight, Mean [2, 6]: 33.7 g
Body weight, Mean [2, 7]: 33.5 g
Body weight, Mean [2, 8]: 33.8 g
Body weight, Mean [2, 9]: 33.9 g
Body weight, Mean [2, 10]: 34.4 g
Body weight, Mean [2, 11]: 34.1 g
Body weight, Mean [2, 12]: 34.0 g
Body weight, Mean [2, 13]: 33.7 g
Body weight, Mean [2, 14]: 33.7 g
Body weight, Mean [2, 15]: 34.0 g
change in vivo at 2 mg/kg [2, 16]: 0%
change in vivo at 2 mg/kg [2, 17]: -1%
change in vivo at 2 mg/kg [2, 18]: 0%
change in vivo at 2 mg/kg [2, 19]: 1%
change in vivo at 2 mg/kg [2, 20]: 0%
change in vivo at 2 mg/kg [2, 21]: 1%
change in vivo at 2 mg/kg [2, 22]: -1%
change in vivo at 2 mg/kg [2, 23]: 0%
change in vivo at 2 mg/kg [2, 24]: 1%
change in vivo at 2 mg/kg [2, 25]: 1%
change in vivo at 2 mg/kg [2, 26]: -1%
Individual Animal Fate: Fate Status [3]: Scheduled Sacrifice

CC1=C(O)C(=O)C=C2C1=CC=C1[C@@]2(C)CC[C@@]2(C)[C@@H]3C[C@](C)(N(C)C)CC[C@]3(C)CC[C@]12C [ERX1177]
solubility at 1 h [1, 4]: 49.5 µM (≈ 22.3 µg/mL)
solubility at 1 h ([1]; Solubility (μM), Table 6-D): 49.5 µM (≈ 22.3 µg/mL)
Individual Body Weight ([2]; 2 mg/kg, Phase Day DSNG 3): 31.8 g (2×) and 34.6 g (2×) and 38.2 g
Individual Body Weight ([2]; 2 mg/kg, Phase Day DSNG 4): 31.2 g and 30.8 g and 34.8 g and 37.7 g and 34.2 g
Individual Body Weight ([2]; 2 mg/kg, Phase Day DSNG 5): 31.3 g and 30.9 g and 34.2 g and 38.0 g and 34.4 g
Individual Body Weight ([2]; 2 mg/kg, Phase Day DSNG 6): 31.4 g and 30.1 g and 33.7 g and 38.1 g and 34.4 g
Individual Body Weight ([2]; 2 mg/kg, Phase Day DSNG 7): 31.4 g and 29.9 g and 33.7 g and 38.0 g and 34.1 g
Individual Body Weight ([2]; 2 mg/kg, Phase Day DSNG 8): 31.0 g and 29.8 g and 33.4 g and 37.8 g and 33.7 g
Body weight, Mean [2, 5]: 33.4 g
Body weight, Mean [2, 6]: 33.1 g
Body weight, Mean [2, 7]: 33.0 g
Body weight, Mean [2, 8]: 33.1 g
Body weight, Mean [2, 9]: 33.0 g
Body weight, Mean [2, 10]: 34.9 g
Body weight, Mean [2, 11]: 34.4 g
Body weight, Mean [2, 12]: 34.2 g
Body weight, Mean [2, 13]: 33.7 g
Body weight, Mean [2, 14]: 33.8 g
Body weight, Mean [2, 15]: 33.5 g
change in vivo at 2 mg/kg [2, 16]: 2%
change in vivo at 2 mg/kg [2, 17]: 0%
change in vivo at 2 mg/kg [2, 18]: 1%
change in vivo at 2 mg/kg [2, 19]: 1%
change in vivo at 2 mg/kg [2, 20]: 0%
change in vivo at 2 mg/kg [2, 21]: 0%
change in vivo at 2 mg/kg [2, 22]: 0%
change in vivo at 2 mg/kg [2, 23]: -2%
change in vivo at 2 mg/kg [2, 24]: -1%
change in vivo at 2 mg/kg [2, 25]: -1%
change in vivo at 2 mg/kg [2, 26]: -3%
Individual Body Weight, DSNG 1 [2, 28]: 32.0 g and 32.1 g and 35.5 g and 40.1 g and 35.0 g
Individual Body Weight, DSNG 2 [2, 28]: 32.2 g and 31.9 g and 34.5 g and 38.4 g and 34.9 g
Individual Body Weight, PRED 11 [2, 29]: 33.8 g and 33.3 g and 37.1 g and 41.9 g and 35.5 g
Individual Body Weight, PRED 12 [2, 29]: 32.5 g and 33.7 g and 36.7 g and 41.6 g and 36.2 g
Individual Body Weight, PRED 13 [2, 29]: 31.8 g and 32.6 g and 35.6 g and 42.2 g and 36.1 g
Individual Body Weight, PRED 14 [2, 29]: 31.7 g and 33.1 g and 36.4 g and 41.7 g and 36.2 g
Individual Animal Fate: Fate Status [3]: Scheduled Sacrifice
